From PubChem BioAssay AID1159564 (GlaxoSmithKline (GSK), 2015)
The source made the active and inactive calls. How the calls were made is not given here.

Test system: L. donovani-infected THP-1 macrophages, intracellular amastigote imaging
Assay: intracellular L. donovani amastigote inhibition, imaging, THP-1 host macrophages, host toxicity (AID 1159564)
[1] = measured here: THP-1 host cell toxicity
[2] = measured here: amastigotes per macrophage

Compound	IC50	IC50 [1] [µM]	IC50 [2] [µM]
CCC(CC)C(=O)Nc1ccc(-c2nnc(-c3ccc(OC)cc3)o2)cc1	> 50 µM (inactive)	> 50	> 50
COc1ccc(C(=O)N2CCC(Nc3cccnc3)C2)c(OC)n1 (stereo unspecified)	> 50 µM (inactive)	> 50	> 50
O=C(CSc1ccc(F)cc1)N[C@@H](Cc1cnc[nH]1)C(=O)NCCc1ccccc1	> 50 µM (inactive)	> 50	> 50
CCOc1ccc(Nc2ccc(S(=O)(=O)N3CCN(C)CC3)cc2[N+](=O)[O-])cc1OCC	7.9 µM	13	5
Cc1nc(C(=O)Nc2ccc3c(c2)OCO3)nn1-c1ccc(Cl)cc1	2 µM	13	1.6
Oc1c(-c2n[nH]c(CCc3ccccc3)n2)ncc2cccnc12	4 µM	20	3.2
Cc1cc2cc(CNc3ccc4c(c3)OCO4)c(=O)n(CCO)c2cc1C	0.5 µM	40	0.25
CNc1cncc(C2CCCN2C(=O)Cc2coc3cc(C)ccc23)n1 (stereo unspecified)	> 50 µM (inactive)	> 50	0.79
CCc1cccc(CC)c1-n1c(SCC(=O)N2CC(=O)Nc3ccccc32)nnc1-c1cccnc1	> 50 µM (inactive)	> 50	> 50
Cn1cc(CN2CCN(c3ccc4c(c3)CCN(C(=O)[C@H]3C[C@@H]3c3ccccc3)CC4)CC2)cn1	32 µM	6.3	1
OC[C@@H](Nc1nccc(-c2c(-c3ccc(F)cc3)ncn2C2CCNCC2)n1)c1ccccc1	32 µM	32	32
CCNc1cc(-c2ccccn2)nc(Nc2ccc(OC)cc2)n1	0.5 µM	25	0.4
O=C1NCc2cccc(Nc3nc(NC4CCC(O)CC4)ncc3Br)c21 (stereo unspecified)	0.16 µM	0.1	0.13
CCCc1cc(N)nc(-c2cc(CCC)cc(N)n2)c1	2.5 µM	20	1.6
Cc1ccccc1NS(=O)(=O)c1ccc2[nH]cc(C(=O)NC3CCCC(C)C3C)c(=O)c2c1 (stereo unspecified)	16 µM	13	16
O=[N+]([O-])c1ccc(-c2nnn(-c3cccnc3)n2)o1	> 50 µM (inactive)	13	50
CN(Cc1ccccc1)Cc1nnnn1C1CCN(Cc2ccc(-n3ccnc3)cc2)CC1	> 50 µM (inactive)	32	> 50

Compound	IC50	IC50 [1] [µM]	IC50 [2] [µM]
NCc1ccc2c(Cl)cc(Cl)c(O)c2n1	2 µM	20	2
C[C@@H](Oc1cc(-n2cnc3ccc(CC(O)CO)cc32)sc1C(N)=O)c1ccccc1Cl (stereo partly specified)	40 µM	40	32
CS(=O)(=O)c1cccc(CNC(=O)c2cncc(N3CCN(c4ccc(F)cc4)CC3)c2)c1	> 50 µM (inactive)	> 50	> 50
CS(=O)(=O)N1CCC(Nc2ncc(Br)c(Nc3cccc(F)c3C(N)=O)n2)CC1	1.6 µM	1	0.79
CNC(=O)C1Cc2ccccc2N1C(=O)Cc1ccccc1 (stereo unspecified)	> 50 µM (inactive)	> 50	> 50
Cc1ccc(NC(C)C(=O)Nc2ccc(C#N)cc2)cc1S(=O)(=O)N1CCCCC1 (stereo unspecified)	10 µM	50	5
O=c1cc(NCCCNCc2c[nH]c3ccc(Br)cc23)[nH]c2ccccc12	> 50 µM (inactive)	> 50	> 50
FC(F)(F)c1cc(C2CCCN(Cc3c[nH]c4ccccc34)C2)nc2ncnn12 (stereo unspecified)	> 50 µM (inactive)	16	> 50
Cn1c(CN2CCN(c3ncc(C(F)(F)F)cc3Cl)CC2)nc2ccncc21	> 50 µM (inactive)	6.3	–
Cc1ccc(C)c(CN2C(=O)NC3(CCc4ccccc43)C2=O)c1 (stereo unspecified)	> 50 µM (inactive)	> 50	16
NS(=O)(=O)c1ccc(CNC(=O)c2ccc([N+](=O)[O-])s2)cc1	25 µM	40	13
COc1ccc(C(=O)Nc2cc(C(F)(F)F)ccc2N2CCOCC2)c(OC)c1	10 µM	13	7.9
CC(CNS(=O)(=O)c1ccc(OC(F)F)cc1)c1ccc(NC(=O)c2ccncc2)cc1 (stereo unspecified)	> 50 µM (inactive)	16	5
Cc1c(C(C)NC(=O)Nc2cccc(Cl)c2)sc2ncnn12 (stereo unspecified)	> 50 µM (inactive)	> 50	2
Oc1c(-c2n[nH]c(Cc3ccc(Cl)cc3)n2)ncc2cccnc12	1.3 µM	20	1
O=C(Nc1ccc(Br)c(Cl)c1)Nc1ccc2c(c1)OCO2	> 50 µM (inactive)	> 50	> 50
Cc1nn(C2CCS(=O)(=O)C2)c(C)c1CN(C)C(=O)C=Cc1sc2ccccc2c1Cl (stereo unspecified)	40 µM	20	13
